Results taken from patent publication US20190069549A1, “HERBICIDAL COMPOSITIONS CONTAINING PYRIDINE CARBOXYLIC ACIDS OR DERIVATIVES THEREOF, WITH GLYPHOSATE OR GLUFOSINATE, OR DERIVATIVES THEREOF” (Dow AgroSciences LLC, priority 2017, published 2019).

How the values were obtained:
Assay in all cases: Postemergence herbicidal activity, greenhouse trial (visual injury)
Format in all cases: in vivo
[1] = test system: Abutilon theophrasti (velvetleaf), ABUTH; conditions: 20-22 d
Experimental: (§1) Seeds of the desired test plant species were planted in Sun Gro MetroMix® 360 planting mixture, which typically has a pH of 6.0 to 6.8 and an organic matter content of about 30 percent, in plastic pots with a surface area of 103.2 square centimeters (cm^2). When required to ensure good germination and healthy plants, a fungicide treatment and/or other chemical or physical treatment was applied. The plants were grown for 7-36 days (d) in a greenhouse with an approximate 14-hour (h) photoperiod which was maintained at about 23° C. during the day and 22° C. during the night. Nutrients and water were added on a regular basis and supplemental lighting was provided with overhead metal halide 1000-Watt lamps as necessary. The plants were employed for testing when they reached the second or third true leaf stage.
(§2) Weighed amounts of technical material were dissolved in a volume of 97:3 volume per volume (v/v) acetone/dimethyl sulfoxide (DMSO) to make stock solutions. […] The concentrated stock solutions were diluted with an aqueous mixture of 1.5% v/v of Agri-dex crop oil concentrate to provide the appropriate application rates. Compound requirements are based upon a 12 milliliter (mL) application volume at a rate of 187 liters per hectare (L/ha). Spray solutions of the experimental compound mixtures were prepared by adding the stock solutions to the appropriate amount of dilution solution to form a 12 mL spray solution in two-way combinations. Formulated compounds were applied to the plant material with an overhead Mandel track sprayer equipped with 8002E nozzles calibrated to deliver 187 L/ha over an application area of 0.503 square meters (m^2) at a spray height of 18 inches (43 centimeters (cm)) above average plant canopy. Control plants were sprayed in the same manner with the solvent blank. Application rates for component (a) are in g ae/ha, and application rates for component (b) are in g ai/ha.
(§3) The treated plants and control plants were placed in a greenhouse as described above and watered by sub-irrigation to prevent wash-off of the test compounds. After 20-22 d, the condition of the test plants as compared with that of the control plants was determined visually and scored on a scale of 0 to 100 percent where 0 corresponds to no injury and 100 corresponds to complete kill. The condition of the test plants was compared with that of the control plants as determined visually and scored on a scale of 0 to 100 percent, where 0 corresponds to no injury and 100 corresponds to complete kill. Colby' s equation was used to determine the herbicidal effects expected from the mixtures.
(§4) Compound 1 was formulated as an EC and was combined with glyphosate or glufosinate and applied to weeds, and the phytotoxicity of the herbicidal composition was measured.

[2] = test system: Brassica alboglabra (chinese kale), BRSAG; conditions: 5 g ae/ha alone, 20-22 d, Table 2
Experimental: as §1, §2, §3, §4

[3] = test system: Brassica napus (winter rape), BRSNW; conditions: 20-22 d
Experimental: as §1, §2, §3, §4

[4] = test system: Digitaria sanguinalis (large crabgrass), DIGSA; conditions: 20-22 d
Experimental: as §1, §2, §3, §4

[5] = test system: Viola tricolor (wild pansy), VIOTR; conditions: 20-22 d
Experimental: as §1, §2, §3, §4

[6] = test system: Polygonum convolvulus (wild buckwheat), POLCO; conditions: 20-22 d
Experimental: as §1, §2, §3, §4

[7] = test system: Zea mays (maize/corn), ZEAMX; conditions: 20-22 d
Experimental: as §1, §2, §3, §4

[8] = test system: Brassica rapa (turnip), BRSRR; conditions: 20-22 d
Experimental: as §1, §2, §3, §4

[9] = test system: Triticum aestivum (winter wheat), TRZAW; conditions: 20-22 d
Experimental: as §1, §2, §3, §4

[10] = test system: Brassica napus (spring rape; Roundup Ready), BRSNN-RR; conditions: 5 g ae/ha alone, 20-22 d, Table 2
Experimental: as §1, §2, §3, §4

[11] = test system: Brassica juncea (brown mustard), BRSJU; conditions: 5 g ae/ha alone, 20-22 d, Table 2
Experimental: as §1, §2, §3, §4

[12] = test system: Helianthus annuus (sunflower), HELAN; conditions: 20-22 d
Experimental: as §1, §2, §3, §4

[13] = test system: Cirsium arvense (thistle), CIRAR; conditions: 20-22 d
Experimental: as §1, §2, §3, §4

Nc1c(F)c(-c2ccc3cc[nH]c3c2F)nc(C(=O)O)c1Cl [Compound 1]
% Visual Injury ([1]; 5 g ae/ha alone, Table 1): 60% | % Visual Injury ([1]; 5 g ae/ha alone, Table 2): 60% | % Visual Injury [2]: 15% | % Visual Injury ([3]; BRSNW* (retest), 5 g ae/ha alone, Table 1): 50% | % Visual Injury ([3]; BRSNW* (retest), 5 g ae/ha alone, Table 2): 30% | % Visual Injury ([3]; BRSNW, 5 g ae/ha alone, Table 1): 30% | % Visual Injury ([3]; BRSNW, 5 g ae/ha alone, Table 2): 50% | % Visual Injury ([4]; 5 g ae/ha alone, Table 1): 5% | % Visual Injury ([4]; 5 g ae/ha alone, Table 2): 5% | % Visual Injury ([5]; 5 g ae/ha alone, Table 1): 5% | % Visual Injury ([5]; 5 g ae/ha alone, Table 2): 5% | % Visual Injury ([6]; 5 g ae/ha alone, Table 1): 65% | % Visual Injury ([6]; 5 g ae/ha alone, Table 2): 65% | % Visual Injury ([7]; 5 g ae/ha alone, Table 1): 0% | % Visual Injury ([7]; 5 g ae/ha alone, Table 2): 0% | % Visual Injury ([8]; 5 g ae/ha alone, Table 1): 50% | % Visual Injury ([8]; 5 g ae/ha alone, Table 2): 50% | % Visual Injury ([9]; 5 g ae/ha alone, Table 1): 5% | % Visual Injury ([9]; 5 g ae/ha alone, Table 2): 5% | % Visual Injury [10]: 35% | % Visual Injury [11]: 60% | % Visual Injury ([12]; 5 g ae/ha alone, Table 1): 70% | % Visual Injury ([12]; 5 g ae/ha alone, Table 2): 70% | % Visual Injury ([13]; 5 g ae/ha alone, Table 1): 10% | % Visual Injury ([13]; 5 g ae/ha alone, Table 2): 10%

O=C(O)CNCP(=O)(O)O [Glyphosate, N-(phosphonomethyl)glycine]
% Visual Injury ([1]; 210 g ai/ha alone, Table 1): 60% | % Visual Injury ([3]; BRSNW* (retest), 210 g ai/ha alone, Table 1): 30% | % Visual Injury ([3]; BRSNW, 210 g ai/ha alone, Table 1): 20% | % Visual Injury ([4]; 210 g ai/ha alone, Table 1): 70% | % Visual Injury ([5]; 210 g ai/ha alone, Table 1): 50% | % Visual Injury ([6]; 210 g ai/ha alone, Table 1): 45% | % Visual Injury ([7]; 210 g ai/ha alone, Table 1): 0% | % Visual Injury ([8]; 210 g ai/ha alone, Table 1): 65% | % Visual Injury ([9]; 210 g ai/ha alone, Table 1): 75% | % Visual Injury ([12]; 210 g ai/ha alone, Table 1): 65% | % Visual Injury ([13]; 210 g ai/ha alone, Table 1): 25%
